≈ marks a conversion by molar mass, not a printed value. Counter-ions that a name gives are not always drawn. Like-named read-outs stand apart in the source and are kept apart here. Blank lines part the entries; values can stand above or below the compound they belong to.
Columns and labels:
Format in all cases: cell-based
[1] = target: T1, P-gp drug efflux activity in HeL023 cells (Homo sapiens, UniProt P08183); test: Rhodamine 123 efflux assay, HeL023 cells; settings: cells expressing P-gp activity
T1 construct: nearly all (100±1%) the cells expressing high level of functional P-gp; endogenous in cells; host or cells: HeL023 human erythroleukemia cells
Method: 5×10^5 cells from each subline were loaded with 50 ng/ml of rhodamine 123 for 30 minutes at 37° C. in medium. The cells were washed and resuspended in dye-staining agent free medium for 3 hours at 37° C. to allow rhodamine 123 efflux. The cells were then washed twice and the fluorescence of intracellular rhodamine 123 were analysed with Flow cytometer (residual fluorescence FRES). The fluorescence was compared with loaded cells maintained at 4° C. to prevent drug export (maximal fluorescence FMAX). […] Cells from each subline that were not being exposed to rhodamine 123 were used as negative controls.
Rhodamine 123 (Rh123) retention, a P-gp functional assay, was studied in all cell lines. This assay was performed by incubating cells with Rh123 and determining Rh123 accumulation by measuring its fluorescence. The maximum load of Rh123 (FMAX) was quantified at the end of treatment harvesting the cells and storing them at 4° C. to prevent any active Rh123 efflux . The P-gp drug efflux was allowed incubating Rh123-loaded cells in fresh new medium Rh123-free for 3 hours at 37° C. After this incubation, residual fluorescence (FRES) was measured and compared to FMAX.

[2] = tested on: human pancreatic cancer Panc-1; test: MTT growth inhibitory assay, Panc-1; settings: Human Pancreatic Cancer Panc-1; read-out: IC50 growth inhibition, agent used separately
[3] = tested on: human colon carcinoma HT29 cell line; test: MTT growth inhibitory assay, HT29; settings: for IC50: HT-29
[4] = tested on: human melanoma A375 cell line; test: MTT growth inhibitory assay, A375; settings: Homo sapiens
[5] = tested on: human lung carcinoma SKMES; test: MTT growth inhibitory assay, SKMES
[6] = Human Colon Carcinoma HT29, read-out: IC50 growth inhibition, agent used separately
[7] = A-375, Human Melanoma A375, read-out: IC50 growth inhibition, agent used separately
[8] = Human Lung Carcinoma SKMES, read-out: IC50 growth inhibition, agent used separately

T1 sequence (P08183 whole entry): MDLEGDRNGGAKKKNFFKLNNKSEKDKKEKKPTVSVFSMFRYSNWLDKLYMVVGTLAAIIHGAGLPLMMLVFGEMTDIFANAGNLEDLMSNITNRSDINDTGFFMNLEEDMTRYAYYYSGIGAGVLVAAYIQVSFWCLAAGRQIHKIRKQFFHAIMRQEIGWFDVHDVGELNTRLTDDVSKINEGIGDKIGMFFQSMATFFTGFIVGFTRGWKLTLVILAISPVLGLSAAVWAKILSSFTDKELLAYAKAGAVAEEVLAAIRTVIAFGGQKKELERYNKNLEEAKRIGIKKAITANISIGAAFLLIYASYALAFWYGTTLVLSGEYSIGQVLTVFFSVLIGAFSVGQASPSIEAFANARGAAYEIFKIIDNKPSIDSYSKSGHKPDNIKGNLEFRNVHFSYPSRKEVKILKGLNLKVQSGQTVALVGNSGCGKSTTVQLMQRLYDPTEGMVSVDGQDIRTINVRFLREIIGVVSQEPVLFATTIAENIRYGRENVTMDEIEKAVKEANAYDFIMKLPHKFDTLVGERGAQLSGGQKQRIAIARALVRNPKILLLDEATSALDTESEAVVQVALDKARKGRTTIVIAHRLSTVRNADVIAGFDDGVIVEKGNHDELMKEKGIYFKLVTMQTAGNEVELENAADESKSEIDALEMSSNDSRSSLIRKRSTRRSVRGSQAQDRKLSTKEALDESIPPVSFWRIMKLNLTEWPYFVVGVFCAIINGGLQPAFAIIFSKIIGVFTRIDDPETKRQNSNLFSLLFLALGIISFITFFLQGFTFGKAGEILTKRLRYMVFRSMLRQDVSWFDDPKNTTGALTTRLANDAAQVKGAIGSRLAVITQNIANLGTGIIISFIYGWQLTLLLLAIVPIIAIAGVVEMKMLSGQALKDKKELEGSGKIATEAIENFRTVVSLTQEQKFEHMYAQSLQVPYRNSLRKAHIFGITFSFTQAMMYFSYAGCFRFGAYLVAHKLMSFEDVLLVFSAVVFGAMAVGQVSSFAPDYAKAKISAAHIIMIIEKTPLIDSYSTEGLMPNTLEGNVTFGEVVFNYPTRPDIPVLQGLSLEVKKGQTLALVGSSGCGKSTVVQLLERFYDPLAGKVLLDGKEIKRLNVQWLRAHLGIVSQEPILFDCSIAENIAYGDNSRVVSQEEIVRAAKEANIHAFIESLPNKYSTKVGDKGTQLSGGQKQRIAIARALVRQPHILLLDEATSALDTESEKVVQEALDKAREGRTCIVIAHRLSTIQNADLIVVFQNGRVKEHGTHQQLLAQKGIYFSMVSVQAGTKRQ

Compound: CCCn1cc2c(nc(NC(=O)Nc3ccccc3)n3nc(-c4ccco4)nc23)n1 [drawing 9]
% of Rh123 negative cells ([1]; 10 μM): 0.8 ± 0.2%

Compound: CCCn1cc2c(nc(NC(=O)Nc3ccccc3)n3nc(-c4ccco4)nc23)n1 [drawing 10]
% of Rh123 negative cells ([1]; 10 μM): 1.0 ± 0.2%

Compound: Cc1ccc(NC(=O)Nc2nc3nn(C)cc3c3nc(-c4ccco4)nn23)cc1 [drawing 11]
% of Rh123 negative cells ([1]; 10 μM): 22.0 ± 1.0%

Compound: Nc1nc2ccc(Cl)cc2c2nc(-c3ccco3)nn12 [drawing 12, reference compound]
% of Rh123 negative cells ([1]; 70 μM): 87.1 ± 1.0%

Compound: Nc1nc(NCCc2ccc(O)cc2)nc2nc(-c3ccco3)nn12 [drawing 13, reference compound]
% of Rh123 negative cells ([1]; 70 μM): 93.0 ± 1.1%

IC50 [2]: 1.12 ± 0.29 µg/mL
IC50 [3, 6]: 1.05 ± 0.07 µg/mL
IC50 ([3]; Homo sapiens, HT29, irinotecan HCl 0.04-20 μg/ml, alone, read-out: IC50 of irinotecan HCl, A3 antagonist none): 0.96 µg/mL
IC50 [4, 7]: 0.88 ± 0.19 µg/mL
IC50 ([5]; Homo sapiens, SKMES, irinotecan HCL 0.04-20 μg/ml, alone, read-out: IC50 of irinotecan HCL, A3 antagonist none): 1.17 µg/mL
IC50 [5, 8]: 1.23 ± 0.36 µg/mL
Compound: CCc1c2c(nc3ccc(OC(=O)N4CCC(N5CCCCC5)CC4)cc13)-c1cc3c(c(=O)n1C2)COC(=O)[C@]3(O)CC [irinotecan HCL, reference compound]

Compound: O=C1c2c(O)ccc(O)c2C(=O)c2c(NCCNCCO)ccc(NCCNCCO)c21 [mitoxantrone, reference compound]
IC50 ([3]; Homo sapiens, HT29 cell line, read-out: IC50 value): 0.1 µg/mL (≈ 225 nM)
fold HT29 more refractory than A375 ([3]; ratio of IC50 HT29 vs A375): approximately 30 fold
IC50 ([4]; A-375, A375 cell line, read-out: IC50 value): 0.0032 µg/mL (≈ 7.2 nM)

IC50 [2]: 0.0018 ± 0.0008 µg/mL (≈ 2.22 nM)
IC50 [3, 6]: 0.0019 ± 0.0004 µg/mL (≈ 2.34 nM)
IC50 [4, 7]: 0.0016 µg/mL (≈ 1.97 nM)
IC50 ([5]; Homo sapiens, SKMES, vinblastine 0.00001-0.005 μg/ml, alone, read-out: IC50 of vinblastine, A3 antagonist none): 0.0015 µg/mL (≈ 1.85 nM)
IC50 [5, 8]: 0.0019 ± 0.0009 µg/mL (≈ 2.34 nM)
Compound: CC[C@]1(O)C[C@@H]2CN(CCc3c([nH]c4ccccc34)[C@@](C(=O)OC)(c3cc4c(cc3OC)N(C)[C@H]3[C@@](O)(C(=O)OC)[C@H](OC(C)=O)[C@]5(CC)C=CCN6CC[C@]43[C@@H]65)C2)C1 [vinblastine, reference compound]
